Assay results reported in patent US20170122958A1, “Enzymes Functional Probes” (University of Dundee, priority 2013, published 2017).

How the values were obtained:
Assay in all cases: DSF thermal shift
Type in all cases: binding
Brd2(2)*(Leu383-Ala) = Brd2(2)*(Leu383-Ala) (Homo sapiens, UniProt P25440, L383A); parameters: Plasmids of the eight single BET bromodomain constructs Brd2(1), Brd2(2), Brd3(1), Brd3(2); His6 (N); made in house; host or cells: E. coli BL21(DE3); settings: mutant
Experimental: (§1) DSF assays were performed on a LightCycler®480 from Roche or a Mx3005P Real Time PCR machine from Stratagene. […] SYPRO®Orange from Invitrogen Molecular Probes® was used as a reporter dye to monitor the denaturing process of the proteins. Samples were assayed on a 96-well plate with final protein concentrations of 2 μM for the LightCycler®480 and 6 μM for Mx3005P. Compounds were added at a final concentration of 10 μM for the LightCycler®480 and 30 μM for Mx3005P, while the tetra acetylated histone peptide was added to a final concentration of 100 μM and 300 μM respectively. […] The temperature was raised with a step of 0.6° C. per minute from 37° C. to 95° C. with the LightCycler®480 collecting 39 measurements per ° C., and 1° C. per minute from 25° C. to 95° C. with Mx3005P, collecting fluorescence readings at the end of each interval. Each sample was run in triplicates.
(§2) Collected data was analysed by IGOR Pro 6, a scientific software tool from Wave Metrics, Inc. Analysis was done following the recommendations of Niesen et al.. Fluorescence intensity was plotted as a function of temperature, generating a sigmoidal curve described by a two-state transition from folded to unfolded protein. Curves were fitted by the following sigmoidal equation: […]
(§3) A1 and A2 are the values of minimum and maximum intensities, respectively, x0 is the inflection point and dx is the rate. Fitted curves were differentiated in IGOR Pro 6 and the maximum of the first derivative was identified using the same program. These values correspond to the inflection points of the transition curves and thus to the melting temperatures of the proteins (Tm).

Brd2(1)*(Leu110-Ala) = Brd2(1)*(Leu110-Ala) (Homo sapiens, UniProt P25440, L110A); parameters: Plasmids of the eight single BET bromodomain constructs Brd2(1), Brd2(2), Brd3(1), Brd3(2); His6 (N); made in house; host or cells: E. coli BL21(DE3); settings: mutant
Experimental: as §1, §2, §3

brd4(1)L094A = biological target: T1, brd4(1)L094A (Homo sapiens, UniProt O60885, L94A); settings: mutant
T1 construct: Plasmids of the eight single BET bromodomain constructs Brd2(1), Brd2(2), Brd3(1), Brd3(2), Brd4(1), Brd4(2), Brdt(1) and Brdt(2); His6 (N); made in house; host or cells: E. coli BL21(DE3)

Brd4(1) = biological target: T2, Brd4(1) (Homo sapiens, UniProt O60885); settings: wild type
T2 construct: Plasmids of the eight single BET bromodomain constructs Brd2(1), Brd2(2), Brd3(1), Brd3(2), Brd4(1), Brd4(2), Brdt(1) and Brdt(2); His6 (N); made in house; host or cells: E. coli BL21(DE3)

Brd4(2) = biological target: T3, Brd4(2) (Homo sapiens, UniProt O60885); settings: wild type
T3 construct: Plasmids of the eight single BET bromodomain constructs Brd2(1), Brd2(2), Brd3(1), Brd3(2), Brd4(1), Brd4(2), Brdt(1) and Brdt(2); His6 (N); made in house; host or cells: E. coli BL21(DE3)

Brd2(2) = biological target: T4, Brd2(2) (Homo sapiens, UniProt P25440); settings: wild type
T4 construct: Plasmids of the eight single BET bromodomain constructs Brd2(1), Brd2(2), Brd3(1), Brd3(2); His6 (N); made in house; host or cells: E. coli BL21(DE3)

brd4(2)L387A = biological target: T5, brd4(2)L387A (Homo sapiens, UniProt O60885, L387A); settings: mutant
T5 construct: Plasmids of the eight single BET bromodomain constructs Brd2(1), Brd2(2), Brd3(1), Brd3(2), Brd4(1), Brd4(2), Brdt(1) and Brdt(2); His6 (N); made in house; host or cells: E. coli BL21(DE3)

Brd2(1) = biological target: T6, Brd2(1) (Homo sapiens, UniProt P25440); settings: wild type
T6 construct: Plasmids of the eight single BET bromodomain constructs Brd2(1), Brd2(2), Brd3(1), Brd3(2); His6 (N); made in house; host or cells: E. coli BL21(DE3)

Brd2(2)*(Val376Ala) = biological target: T7, Brd2(2)*(Val376Ala) (Homo sapiens, UniProt P25440, V376A); settings: mutant
T7 construct: Plasmids of the eight single BET bromodomain constructs Brd2(1), Brd2(2), Brd3(1), Brd3(2); His6 (N); made in house; host or cells: E. coli BL21(DE3)

Brd2(1)*(Val103-Ala) = biological target: T8, Brd2(1)*(Val103-Ala) (Homo sapiens, UniProt P25440, V103A); settings: mutant
T8 construct: Plasmids of the eight single BET bromodomain constructs Brd2(1), Brd2(2), Brd3(1), Brd3(2); His6 (N); made in house; host or cells: E. coli BL21(DE3)
T8 sequence (P25440 74-180 V103A limits assumed): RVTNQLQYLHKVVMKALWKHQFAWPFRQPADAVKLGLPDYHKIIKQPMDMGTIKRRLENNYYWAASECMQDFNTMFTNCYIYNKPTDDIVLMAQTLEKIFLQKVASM

T4 sequence (P25440 344-453 limits assumed): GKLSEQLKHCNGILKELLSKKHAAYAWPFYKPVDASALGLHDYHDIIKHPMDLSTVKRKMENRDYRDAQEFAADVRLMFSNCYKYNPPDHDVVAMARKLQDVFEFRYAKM
T6 sequence (P25440 74-180 limits assumed): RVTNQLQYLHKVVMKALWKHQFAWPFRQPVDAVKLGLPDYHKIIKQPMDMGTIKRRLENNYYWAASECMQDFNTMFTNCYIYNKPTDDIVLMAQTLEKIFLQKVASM
T7 sequence (P25440 344-453 V376A limits assumed): as the sequence (P25440 344-453 limits assumed) above, with V33A counted along it
Chain of Brd2(1)*(Leu110-Ala) (P25440 74-180 L110A limits assumed): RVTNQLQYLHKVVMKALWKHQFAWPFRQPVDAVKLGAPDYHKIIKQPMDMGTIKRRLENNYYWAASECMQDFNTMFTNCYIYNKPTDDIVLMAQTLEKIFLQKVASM
Chain of Brd2(2)*(Leu383-Ala) (P25440 344-453 L383A limits assumed): as the sequence (P25440 344-453 limits assumed) above, with L40A counted along it

## CCC[C@H](C(=O)OC)[C@@H]1N=C(c2ccc(Cl)cc2)c2cc(OC)ccc2-n2c(C)nnc21 (racemic) [Compound 15, (+−)-Methyl (S)-2-((S)-6-(4-chlorophenyl)-8-methoxy-1-methyl-4H-benzo[f][1,2,4]triazolo[4,3-a][1,4]diazepin-4-yl)pentanoate]
Brd2(2)*(Leu383-Ala)
  ΔTm Brd2(2)*(Leu383-Ala): 1.4 ± 0.2 K
Brd2(1)*(Leu110-Ala)
  ΔTm Brd2(1)*(Leu110-Ala): 0.9 ± 0.6 K
brd4(1)L094A
  ΔTm Brd4(1)* (L094A): 2.4 ± 1.3 K
Brd4(1)
  ΔTm Brd4(1): 0.6 ± 1.1 K
Brd4(2)
  ΔTm Brd4(2): −0.5 ± 1.1 K
Brd2(2)
  ΔTm Brd2(2): 0.5 ± 0.2 K
brd4(2)L387A
  ΔTm Brd4(2)* (L387A): 1.6 ± 0.3 K
Brd2(1)
  ΔTm Brd2(1): 0.1 ± 0.3 K

## COC(=O)[C@@H](CC1CC1)[C@@H]1N=C(c2ccc(Cl)cc2)c2cc(OC)ccc2-n2c(C)nnc21 (racemic) [Compound 16, (+−)-methyl (S)-2-((S)-6-(4-chlorophenyl)-8-methoxy-1-methyl-4H-benzo[f][1,2,4]triazolo[4,3-a][1,4]diazepin-4-yl)-3-cyclopropylpropanoate]
Brd2(2)*(Leu383-Ala)
  ΔTm Brd2(2)*(Leu383-Ala): 2.3 ± 0.3 K
Brd2(1)*(Leu110-Ala)
  ΔTm Brd2(1)*(Leu110-Ala): 1.6 ± 1.0 K
brd4(1)L094A
  ΔTm Brd4(1)* (L094A): 1.3 ± 0.2 K
Brd4(1)
  ΔTm Brd4(1): −0.4 ± 0.5 K
Brd4(2)
  ΔTm Brd4(2): 0.3 ± 0.9 K
Brd2(2)
  ΔTm Brd2(2): 1.1 ± 0.3 K
brd4(2)L387A
  ΔTm Brd4(2)* (L387A): 0.1 ± 0.1 K
Brd2(1)
  ΔTm Brd2(1): −0.5 ± 0.6 K

## COC(=O)CC1N=C(c2ccc(Cl)cc2)c2cc(OC)cc(C)c2-n2c(C)nnc21 (stereo not drawn) [Compound 4, Methyl 2-(6-(4-chlorophenyl)-8-methoxy-1,10-dimethyl-4H benzo[f][1,2,4]triazolo[4,3-a][1,4]diazepin-4-yl)acetate]
Brd2(2)*(Val376Ala)
  Thermal stabilisation brd2(2)V376A: 1.2 ± 0.1 °C
  ΔTm Brd(2)*(Val376-Ala): 1.2 ± 0.1 K
Brd2(2)
  Thermal stabilisation brd2(2): 4.0 ± 0.1 °C
  ΔTm Brd2(2): 4.0 ± 0.1 K
Brd2(1)*(Val103-Ala)
  Thermal stabilisation brd2(1)V103A: 0.5 ± 0.3 °C
  ΔTm Brd2(1)*(Val103-Ala): 0.5 ± 0.3 K
Brd2(1)
  Thermal stabilisation brd2(1): 0.7 ± 0.2 °C
  ΔTm Brd2(1): 0.7 ± 0.2 K
